# According to patent US9073862B2, “Substituted 2-oxy-quinoline-3-carboxamides as KCNQ2/3 modulators” (Grünenthal GmbH, priority 2010, dated 2015):
# Target: T1, KCNQ2/3 channels (Homo sapiens, UniProt O43525+O43526)
# T1 construct: expressed in transfected cells; host or cells: CHO-K1
# Assay: Fluorescence assay using a voltage sensitive dye (fluorimetry)
# Format: cell-based
# Settings: CHO-K1 cells expressing KCNQ2/3 channels; for Emax: relative to retigabine = 100%, read-out: Fluorimetry % efficacy (retigabine = 100%)
# Method: Method I. Fluorescence Assay Using a Voltage Sensitive Dye (Fluorimetry)
# […] CHO-K1 cells expressing KCNQ2/3 channels are cultivated adherently at 37° C., 5% CO2 and 95% humidity in cell culture bottles (e.g. 80 cm^2 TC flasks, Nunc) with DMEM-high glucose (Sigma Aldrich, D7777) including 10% FCS (PAN Biotech, e.g. 3302-P270521) or alternatively MEM Alpha Medium (1×, liquid, Invitrogen, #22571), 10% fetal calf serum (FCS) (Invitrogen, #10270-106, heat-inactivated) and the necessary selection antibiotics.
# Before being sown out for the measurements, the cells are washed with 1×DPBS buffer Ca^2+/Mg^2+-free (e.g. Invitrogen, #14190-094) and detached from the bottom of the culture vessel by using Accutase (PAA Laboratories, #L11-007) (incubation with Accutase for 15 min at 37° C.). The cell number is determined using a CASY™ cell counter (TCC, Schärfe System). Depending on the optimal density for each individual cell line, 20,000-30,000 cells/well/100 μl are seeded onto 96-well Corning™ CellBIND™ assay plates (Flat Clear Bottom Black Polystyrene Microplates, #3340). Freshly seeded cells are then left to settle for one hour at room temperature, followed by incubation for 24 hours at 37° C., 5% CO2 and 95% humidity.
# The voltage-sensitive fluorescent dye from the Membrane Potential Assay Kit (Red™ Bulk format part R8123 for FLIPR, MDS Analytical Technologies™) is prepared by dissolving the contents of one vessel Membrane Potential Assay Kit Red Component A in 200 ml of extracellular buffer (ES buffer, 120 mM NaCl, 1 mM KCl, 10 mM HEPES, 2 mM CaCl2, 2 mM MgCl2, 10 mM glucose; pH 7.4). After removal of the nutrient medium, the cells are washed once with 200 μl of ES buffer, then loaded for 45 min at room temperature in 100 μl of dye solution in the dark.
# Fluorescence measurements are carried out in a BMG Labtech FLUOstar™, BMG Labtech NOVOstar™ or BMG Labtech POLARstar™ instrument (525 nm excitation, 560 nm emission, Bottom Read mode). After incubation with the dye, 50 μl of the test substances in the desired concentrations, or 50 μl of ES buffer for control purposes, are applied to the wells of the assay plate and incubated for 30 min at room temperature while being shielded from light. The fluorescence intensity of the dye is then measured for 5 min and the fluorescence value F1 of each well is thus determined at a given, constant time. 15 μl of a KCl solution are then added to each well (final concentration of potassium ions 92 mM). The change in fluorescence intensity is subsequently monitored until all the relevant values have been obtained (mainly 5-30 min). At a given time post KCl application, a fluorescence value F2 is determined, in this case at the time of the fluorescence peak.
# For calculation, the fluorescence intensity F2 is corrected for the fluorescence intensity F1, and the activity (ΔF/F) of the target compound on the potassium channel is determined as follows:
# In order to determine whether a substance has agonistic activity,
# [formula] can be related to
# [formula] of control wells.
# [formula] is determined by adding to the well only the buffer solution instead of the test substance, determining the value F1K of the fluorescence intensity, adding the potassium ions as described above, and measuring a value F2K of the fluorescence intensity. F2K and F1K are then calculated as follows: […]
# A substance has an agonistic activity on the potassium channel if
# [formula] is greater than
# Independently of the comparison of
# [formula] it is possible to conclude that a target compound has agonistic activity if
# [formula] increases dose dependently.
# Calculations of EC50 and IC50 values are carried out with the aid of ‘Prism v4.0’ software (Graph Pad Software™).
SMILES,Emax,EC50
"COc1nc2cc(C(F)(F)F)ccc2c(C)c1C(=O)NCCC(C)(C)C [Example 1, N-(3,3-dimethyl-butyl)-2-methoxy-4-methyl-7-(trifluoromethyl)-quinoline-3-carboxylic acid amide]",57%,–
"CCOc1nc2cc(C(F)(F)F)ccc2c(C)c1C(=O)NCc1cccs1 [Example 2, 2-ethoxy-4-methyl-N-(thiophene-2-yl-methyl)-7-(trifluoromethyl)-quinoline-3-carboxylic acid amide]",175%,64 nM
"Cc1c(C(=O)NCc2cccc(F)c2)c(OCCO)nc2cc(C(F)(F)F)ccc12 [Example 9, N-[(3-fluorophenyl)-methyl]-2-(2-hydroxy-ethoxy)-4-methyl-7-(trifluoromethyl)-quinoline-3-carboxylic acid amide]",119%,390 nM
"Cc1c(C(=O)NCc2ccc(F)cc2)c(OC(C)C)nc2cc(C(F)(F)F)ccc12 [Example 11, N-[(4-fluorophenyl)-methyl]-2-isopropoxy-4-methyl-7-(trifluoromethyl)-quinoline-3-carboxylic acid amide]",164%,52 nM
"CCOc1nc2cc(C(F)(F)F)ccc2c(OC)c1C(=O)NCc1ccc(F)cc1 [Example 14, 2-ethoxy-N-[(4-fluorophenyl)-methyl]-4-methoxy-7-(trifluoromethyl)-quinoline-3-carboxylic acid amide]",155%,75 nM
"CCOc1nc2cc(F)c(F)cc2c(OC)c1C(=O)NCc1cccc(F)c1 [Example 15, 2-ethoxy-6,7-difluoro-N-[(3-fluorophenyl)-methyl]-4-methoxy-quinoline-3-carboxylic acid amide]",181%,106 nM
"COc1nc2cc(F)c(F)cc2c(OC)c1C(=O)NCc1cccc(F)c1 [Example 17, 6,7-difluoro-N-[(3-fluorophenyl)-methyl]-2,4-dimethoxy-quinoline-3-carboxylic acid amide]",147%,218 nM
"COc1nc2cc(F)ccc2c(C)c1C(=O)NCc1cccc(F)c1 [Example 18, 7-fluoro-N-[(3-fluorophenyl)-methyl]-2-methoxy-4-methyl-quinoline-3-carboxylic acid amide]",62%,340 nM
"COc1nc2cc(C(F)(F)F)ccc2c(C)c1C(=O)NCc1ccc(C)c(F)c1 [Example 19, N-[(3-fluoro-4-methyl-phenyl)-methyl]-2-methoxy-4-methyl-7-(trifluoromethyl)-quinoline-3-carboxylic acid amide]",99%,92 nM
"COc1nc2cc(C(F)(F)F)ccc2c(C)c1C(=O)NCc1cccc(C)c1 [Example 21, 2-methoxy-4-methyl-N-(m-tolyl-methyl)-7-(trifluoromethyl)-quinoline-3-carboxylic acid amide]",71%,67 nM
"COc1nc2cc(C(F)(F)F)ccc2c(C)c1C(=O)NCc1ccc(F)c(C)c1 [Example 23, N-[(4-fluoro-3-methyl-phenyl)-methyl]-2-methoxy-4-methyl-7-(trifluoromethyl)-quinoline-3-carboxylic acid amide]",73%,62 nM
"COc1nc2cc(C(F)(F)F)ccc2c(C)c1C(=O)NCc1ccc(C)cc1 [Example 25, 2-methoxy-4-methyl-N-(p-tolyl-methyl)-7-(trifluoromethyl)-quinoline-3-carboxylic acid amide]",96%,182 nM
"CCOc1nc2cc(C(F)(F)F)ccc2c(C)c1C(=O)NCc1ccc(C)cc1 [Example 26, 2-ethoxy-4-methyl-N-(p-tolyl-methyl)-7-(trifluoromethyl)-quinoline-3-carboxylic acid amide]",117%,131 nM
"CCOc1nc2cc(C(F)(F)F)ccc2c(C)c1C(=O)NCCCC(C)C [Example 27, 2-ethoxy-4-methyl-N-(4-methyl-pentyl)-7-(trifluoromethyl)-quinoline-3-carboxylic acid amide]",173%,84 nM
"COc1nc2cc(C(F)(F)F)ccc2c(C)c1C(=O)NCCCC(C)C [Example 28, 2-methoxy-4-methyl-N-(4-methyl-pentyl)-7-(trifluoromethyl)-quinoline-3-carboxylic acid amide]",184%,81 nM
"CCOc1nc2cc(C(F)(F)F)ccc2c(C)c1C(=O)NCCCC(C)(C)C [Example 30, N-(4,4-dimethyl-pentyl)-2-ethoxy-4-methyl-7-(trifluoromethyl)-quinoline-3-carboxylic acid amide]",214%,50 nM
"CCOc1nc2cc(C#N)ccc2c(C)c1C(=O)NCc1cccc(F)c1 [Example 36, 7-cyano-2-ethoxy-N-[(3-fluorophenyl)-methyl]-4-methyl-quinoline-3-carboxylic acid amide]",105%,56 nM
"COc1nc2cc(C#N)ccc2c(C)c1C(=O)NCc1cccc(F)c1 [Example 37, 7-cyano-N-[(3-fluorophenyl)-methyl]-2-methoxy-4-methyl-quinoline-3-carboxylic acid amide]",85%,261 nM
"COc1nc2cc(C#N)ccc2c(C)c1C(=O)NCc1ccc(F)cc1 [Example 38, 7-cyano-N-[(4-fluorophenyl)-methyl]-2-methoxy-4-methyl-quinoline-3-carboxylic acid amide]",74%,143 nM
"COc1nc2cc(C(F)(F)F)ccc2c(C)c1C(=O)NCc1cccc(F)c1OC [Example 39, N-[(3-fluoro-2-methoxy-phenyl)-methyl]-2-methoxy-4-methyl-7-(trifluoromethyl)-quinoline-3-carboxylic acid amide]",10%,–
"COc1cc(F)cc(CNC(=O)c2c(OC)nc3cc(C(F)(F)F)ccc3c2C)c1 [Example 40, N-[(3-fluoro-5-methoxy-phenyl)-methyl]-2-methoxy-4-methyl-7-(trifluoromethyl)-quinoline-3-carboxylic acid amide]",15%,–
"COc1ccc(F)cc1CNC(=O)c1c(OC)nc2cc(C(F)(F)F)ccc2c1C [Example 41, N-[(5-fluoro-2-methoxy-phenyl)-methyl]-2-methoxy-4-methyl-7-(trifluoromethyl)-quinoline-3-carboxylic acid amide]",140%,1540 nM
"COc1nc2cc(C(F)(F)F)ccc2c(C)c1C(=O)NCc1cccc(F)c1O [Example 42, N-[(3-fluoro-2-hydroxy-phenyl)-methyl]-2-methoxy-4-methyl-7-(trifluoromethyl)-quinoline-3-carboxylic acid amide]",137%,123 nM
"COc1nc2cc(C(F)(F)F)ccc2c(C)c1C(=O)NCc1cc(O)cc(F)c1 [Example 43, N-[(3-fluoro-5-hydroxy-phenyl)-methyl]-2-methoxy-4-methyl-7-(trifluoromethyl)-quinoline-3-carboxylic acid amide]",9%,–
"COc1nc2cc(C(F)(F)F)ccc2c(C)c1C(=O)NCc1cc(F)ccc1O [Example 44, N-[(5-fluoro-2-hydroxy-phenyl)-methyl]-2-methoxy-4-methyl-7-(trifluoromethyl)-quinoline-3-carboxylic acid amide]",173%,79 nM
"COc1nc2cc(C(F)(F)F)ccc2c(C)c1C(=O)NCc1ccc(O)c(F)c1 [Example 45, N-[(3-fluoro-4-hydroxy-phenyl)-methyl]-2-methoxy-4-methyl-7-(trifluoromethyl)-quinoline-3-carboxylic acid amide]",87%,2060 nM
